Reference: US20250163038A1, “CBL-B MODULATORS AND USES THEREOF” (Nimbus Clio, Inc., priority 2021, published 2025)

What was measured:
[1] = molecular target: Recombinant human Cbl-b (aa 36-427) (Homo sapiens, UniProt Q13191); experiment: Cbl-b Biochemical Assay (TR-FRET); conditions: read-out: TR-FRET hCbl-b IC50
[2] = tested on: Jurkat (clone E6-1) cells with NFAT luciferase reporter; experiment: Jurkat reporter assay (NFAT Luciferase); format: cell-based; conditions: Homo sapiens; Jurkat NFAT luciferase reporter cells, anti-CD3 stimulation, 6 hr; read-out: Jurkat NFAT EC50
[3] = molecular target: T1, Recombinant human c-Cbl (aa 47-435) (Homo sapiens, UniProt P22681); experiment: c-Cbl Biochemical Assay (TR-FRET); conditions: hc-Cbl Biochemical Assay (TR-FRET); read-out: TR-FRET hcCbl IC50
T1 sequence (P22681 47-435): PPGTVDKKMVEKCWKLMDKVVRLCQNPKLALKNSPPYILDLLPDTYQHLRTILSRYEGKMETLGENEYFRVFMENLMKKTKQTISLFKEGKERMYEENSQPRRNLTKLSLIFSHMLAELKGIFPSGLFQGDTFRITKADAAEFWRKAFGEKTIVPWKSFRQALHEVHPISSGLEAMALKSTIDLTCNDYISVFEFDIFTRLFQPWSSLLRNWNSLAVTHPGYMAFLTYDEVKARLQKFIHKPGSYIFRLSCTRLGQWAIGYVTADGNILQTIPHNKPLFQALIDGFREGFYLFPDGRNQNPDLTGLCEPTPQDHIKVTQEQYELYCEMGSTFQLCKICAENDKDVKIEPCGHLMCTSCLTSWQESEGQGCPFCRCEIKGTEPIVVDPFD

Sequence of Recombinant human Cbl-b (aa 36-427) (Q13191 36-427): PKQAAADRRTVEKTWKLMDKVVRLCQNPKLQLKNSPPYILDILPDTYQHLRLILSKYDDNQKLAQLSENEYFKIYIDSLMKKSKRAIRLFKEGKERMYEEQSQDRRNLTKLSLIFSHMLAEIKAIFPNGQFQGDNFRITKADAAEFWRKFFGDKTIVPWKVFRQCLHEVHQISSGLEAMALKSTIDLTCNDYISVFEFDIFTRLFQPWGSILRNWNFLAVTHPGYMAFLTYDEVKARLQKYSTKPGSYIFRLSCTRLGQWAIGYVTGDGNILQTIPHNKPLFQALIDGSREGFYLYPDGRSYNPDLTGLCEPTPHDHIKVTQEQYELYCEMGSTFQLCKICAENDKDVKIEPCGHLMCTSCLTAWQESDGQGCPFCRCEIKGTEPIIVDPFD

| IC50 [1] [nM] | EC50 [2] [nM] | IC50 [3] [nM] | SMILES |
| --- | --- | --- | --- |
| < 200 | 200 to 1000 | < 200 | Cn1cnnc1-c1cc(F)ccc1-c1cccc(-c2nc3cc(CNCC4(C#N)CCCC4)cc(C(F)(F)F)c3[nH]2)c1 [CS-1, 1-((((2-(4′-Fluoro-2′-(4-methyl-4H-1,2,4-triazol-3-yl)-[1,1′-biphenyl]-3-yl)-7-(trifluoromethyl)-1H-benzo[d]imidazol-5-yl)methyl)amino)methyl)cyclopentane-1-carbonitrile] |
| < 200 | 1000 to 10000 | 1000 to 10000 | CO[C@H]1CCN(Cc2cc(C(F)(F)F)c3oc(-c4cccc(-c5ccc(F)cc5-c5nncn5C)c4)nc3c2)C1 [AB-2, (S)-2-(4′-Fluoro-2′-(4-methyl-4H-1,2,4-triazol-3-yl)-[1,1′-biphenyl]-3-yl)-5-((3-methoxypyrrolidin-1-yl)methyl)-7-(trifluoromethyl)benzo[d]oxazole] |
| < 200 | 1000 to 10000 | 200 to 1000 | Cn1cnnc1-c1cc(F)ccc1-c1cccc(-c2nc3ccc(CN[C@@H]4CCC[C@@H]4O)cc3o2)c1 [DD-2, (1S,2R)-2-(((2-(4′-Fluoro-2′-(4-methyl-4H-1,2,4-triazol-3-yl)-[1,1′-biphenyl]-3-yl)benzo[d]oxazol-6-yl)methyl)amino)cyclopentan-1-ol] |
| 200 to 1000 | 1000 to 10000 | 200 to 1000 | COc1cc(CN[C@@H]2CCC[C@]2(C)O)cc2nc(-c3cccc(-c4ccc(F)cc4-c4nncn4C)c3)oc12 [GI-2, (1S,2R)-2-(((2-(4′-Fluoro-2′-(4-methyl-4H-1,2,4-triazol-3-yl)-[1,1′-biphenyl]-3-yl)-7-methoxybenzo[d]oxazol-5-yl)methyl)amino)-1-methylcyclopentan-1-ol, Formic Acid] |
| < 200 | 200 to 1000 | 1000 to 10000 | Cn1cnnc1-c1cc(F)ccc1-c1cccc(-c2nc3cc(CNCC4(O)CC4)cc(C(F)(F)F)c3o2)c1 [AH-2, 1-((((2-(4′-Fluoro-2′-(4-methyl-4H-1,2,4-triazol-3-yl)-[1,1′-biphenyl]-3-yl)-7-(trifluoromethyl)benzo[d]oxazol-5-yl)methyl)amino)methyl)cyclopropan-1-ol] |
| 200 to 1000 | 1000 to 10000 | 200 to 1000 | COc1cc(CN[C@@H]2CCC[C@@H]2OC)cc2nc(-c3cccc(-c4ccc(F)cc4-c4nncn4C)c3)oc12 [FQ-1, (1R,2S)—N-((2-(4′-Fluoro-2′-(4-methyl-4H-1,2,4-triazol-3-yl)-[1,1′-biphenyl]-3-yl)-7-methoxybenzo[d]oxazol-5-yl)methyl)-2-methoxycyclopentan-1-amine] |
| < 200 | < 200 | < 200 | Cc1cc(CNCC(C)(C)O)cc2nc(-c3cccc(-c4ccc(F)cc4-c4nncn4C)c3)oc12 [IK-1, 1-(((2-(4′-Fluoro-2′-(4-methyl-4H-1,2,4-triazol-3-yl)-[1,1′-biphenyl]-3-yl)-7-methylbenzo[d]oxazol-5-yl)methyl)amino)-2-methylpropan-2-ol] |
| < 200 | 200 to 1000 | < 200 | CN(Cc1cc(F)c2oc(-c3cc(-c4ccc(F)cc4-c4nncn4C)cc(C4CC4)n3)nc2c1)[C@@H]1CCC[C@@H]1O [AFK-1, (1S,2R)-2-{[(2-{6-Cyclopropyl-4-[4-fluoro-2-(4-methyl-1,2,4-triazol-3-yl)phenyl]pyridin-2-yl}-7-fluoro-1,3-benzoxazol-5-yl)methyl](methyl)amino}cyclopentan-1-ol] |
| < 200 | < 200 | < 200 | COCCNCc1cc(C(F)(F)F)c2oc(-c3cc(-c4ccc(F)cc4-c4nncn4C)cc(C4CC4)c3)nc2c1 [JT-1, N-((2-(5-Cyclopropyl-4′-fluoro-2′-(4-methyl-4H-1,2,4-triazol-3-yl)-[1,1′-biphenyl]-3-yl)-7-(trifluoromethyl)benzo[d]oxazol-5-yl)methyl)-2-methoxyethan-1-amine] |
| < 200 | < 200 | < 200 | Cn1cnnc1-c1cc(F)ccc1-c1cccc(-c2nc3cc(CN[C@@H]4CCC[C@]4(C)O)cc(C(F)(F)F)c3o2)c1 [DP-6, (1S,2R)-2-(((2-(4′-Fluoro-2′-(4-methyl-4H-1,2,4-triazol-3-yl)-[1,1′-biphenyl]-3-yl)-7-(trifluoromethyl)benzo[d]oxazol-5-yl)methyl)amino)-1-methylcyclopentan-1-ol] |
| < 200 | < 200 | < 200 | Cc1cc([C@H](C)NCC2CCC2)cc2nc(-c3cc(-c4ccc(F)cc4-c4nncn4C)cc(C4CC4)n3)oc12 [AGX-1, (cyclobutylmethyl)[(1S)-1-(2-{6-cyclopropyl-4-[4-fluoro-2-(4-methyl-1,2,4-triazol-3-yl)phenyl]pyridin-2-yl}-7-methyl-1,3-benzoxazol-5-yl)ethyl]amine] |
| < 200 | < 200 | < 200 | Cn1cnnc1-c1cc(F)ccc1-c1cc(-c2nc3cc(CNCC4CCC4)cc(F)c3o2)nc(C2CC2)c1 [AGT-1, (Cyclobutylmethyl)[(2-{6-cyclopropyl-4-[4-fluoro-2-(4-methyl-1,2,4-triazol-3-yl)phenyl]pyridin-2-yl}-7-fluoro-1,3-benzoxazol-5-yl)methyl]amine] |
| 200 to 1000 | 1000 to 10000 | 1000 to 10000 | Cc1cc(C(C)(C)N)cc2nc(-c3cc(-c4ccc(F)cc4-c4nncn4C)cc(C4CC4)n3)oc12 [AGR-9, 2-(2-{6-Cyclopropyl-4-[4-fluoro-2-(4-methyl-1,2,4-triazol-3-yl)phenyl]pyridin-2-yl}-7-methyl-1,3-benzoxazol-5-yl)propan-2-amine] |
| 200 to 1000 | 200 to 1000 | 200 to 1000 | Cn1cnnc1-c1cc(F)ccc1-c1cc(-c2nc3cc(CO)c(F)c(F)c3o2)nc(C2CC2)c1 [AFX-1, (2-{6-cyclopropyl-4-[4-fluoro-2-(4-methyl-1,2,4-triazol-3-yl)phenyl]pyridin-2-yl}-6,7-difluoro-1,3-benzoxazol-5-yl)methanol] |
| < 200 | 200 to 1000 | 1000 to 10000 | Cn1cnnc1-c1cc(F)ccc1-c1cccc(-c2nc3cc(CN4CC(C)(O)C4)cc(C(F)(F)F)c3o2)c1 [AF-2, 1-((2-(4′-Fluoro-2′-(4-methyl-4H-1,2,4-triazol-3-yl)-[1,1′-biphenyl]-3-yl)-7-(trifluoromethyl)benzo[d]oxazol-5-yl)methyl)-3-methylazetidin-3-ol] |
| < 200 | < 200 | < 200 | COCCNCc1cc2nc(-c3cc(-c4ccc(F)cc4-c4nncn4C)cc(C4CC4)n3)oc2c(C)c1F [AHG-1, [(2-{6-cyclopropyl-4-[4-fluoro-2-(4-methyl-1,2,4-triazol-3-yl)phenyl]pyridin-2-yl}-6-fluoro-7-methyl-1,3-benzoxazol-5-yl)methyl](2-methoxyethyl)amine] |
| < 200 | 200 to 1000 | 200 to 1000 | COC[C@@H](C)NCc1cc(C(F)(F)F)c2oc(-c3cccc(-c4ccc(F)cc4-c4nncn4C)c3)nc2c1 [EN-2, (R)—N-((2-(4′-Fluoro-2′-(4-methyl-4H-1,2,4-triazol-3-yl)-[1,1′-biphenyl]-3-yl)-7-(trifluoromethyl)benzo[d]oxazol-5-yl)methyl)-1-methoxypropan-2-amine] |
| 200 to 1000 | 1000 to 10000 | 1000 to 10000 | Cn1cnnc1-c1cc(C#N)ccc1-c1cc(-c2nc3cc(CO)cc(F)c3o2)nc(C2CC2)c1 [AHD-1, 4-{2-cyclopropyl-6-[7-fluoro-5-(hydroxymethyl)-1,3-benzoxazol-2-yl]pyridin-4-yl}-3-(4-methyl-1,2,4-triazol-3-yl) benzonitrile] |
